Data taken from patent publication US20050203056A1, “Carboxyl-reduced derivatives of hyaluronic acid, preparation thereof, use thereof as a medicinal product and the pharmaceutical compositions containing them” (Aventis Pharma S.A., priority 2003, published 2005).

Legend:
bovine factor Xa [1] = molecular target: T1, bovine factor Xa (Bos taurus, UniProt P00743); conditions: calibration reference; cited from earlier work
aggrecanase = assay: Effect on the aggrecanase in synovial fluids or on preparations of recombinant ADAMTS protein (BC-3 ELISA, Agg1mut substrate); type: biochemical
Protocol: Effect of the carboxyl-reduced derivatives on the aggrecanase in synovial fluids or on preparations of recombinant ADAMTS protein.
The analysis is carried out on 96-well plates.
In each well, a fixed volume of synovial fluid or aggrecanase activity generating a known increase, between 1.0 and 1.4 absorbance units (405 nm), under the conditions of the analysis, is mixed with 3 μl of solution of compound from the respective dilution step. Dulbecco's modified Eagle's medium (DMEM) is added to each well to give a final volume of 300 μl. The plate is then incubated for 1 hour at 37° C. in a carbon dioxide atmosphere.
After the addition of 5 μl of a solution of […] of recombinant substrate Agglmut in DMEM to each well (substrate as described by Bartnik E. et al., EP 785274, 1997), the reagent mixture is incubated for 4 hours at 37° C. under a carbon dioxide atmosphere.
In a first step, the microplate is coated with 100 μl per well of a commercial goat anti-mouse IgG antibody for 1 hour at ambient temperature (5 μg/ml in a phosphate buffered saline solution, pH 7.4 [PBS buffer]). After washing with the PBS buffer containing 0.1% of Tween-20 (washing buffer), the wells are blocked by means of a step consisting of a one hour incubation with 100 μl per well of 5% bovine serum albumin in a PBS buffer containing 0.05% of Tween-20. Following another rinse with the washing buffer, each well is incubated with 100 μl of a solution, diluted to 1:1000, of BC-3 antibody in a PBS buffer containing 0.05% of Tween 20 and 0.5% of bovine serum albumin, at ambient temperature for one hour. This antibody recognizes the typical aggrecanase cleavage fragments (Hughes C. E. et al., Biochem. J. 305 (3), 799-804, 1995).
After another rinse of the analytical plate with the washing buffer, the complete set of mixtures originating from the preceding digestion is transferred to this plate, well by well, and incubated at ambient temperature for one hour. The plate is again washed as above. Next, 100 μl of the second antibody (anti-human IgG antibody labeled with peroxidase, 1:1000 in PBS containing 0.5% of BSA and 0.05% of Tween-20) are added to each well, with subsequent incubation at ambient temperature again for one hour. After a final rinse with the washing buffer, the color development is initiated by adding 100 μl of ABTS substrate solution (2 mg/ml, 2,2′-azinobis(3-ethyl-benzothiazoline)sulfonic acid) in 40 mM of sodium citrate plus 60 mM of disodium hydrogen phosphate, adjusted to a pH of 4.4 by adding acetic acid; 0.25 μl of 35% hydrogen peroxide added per ml immediately before measurement). […] The development is stopped as soon as the maximum signal (405 nm) in the absorbance range of 1.0 to 1.4 is reached.

[2] = molecular target: T2, human neutrophil elastase (Homo sapiens, UniProt P08246)
T2 sequence (P08246 30-267): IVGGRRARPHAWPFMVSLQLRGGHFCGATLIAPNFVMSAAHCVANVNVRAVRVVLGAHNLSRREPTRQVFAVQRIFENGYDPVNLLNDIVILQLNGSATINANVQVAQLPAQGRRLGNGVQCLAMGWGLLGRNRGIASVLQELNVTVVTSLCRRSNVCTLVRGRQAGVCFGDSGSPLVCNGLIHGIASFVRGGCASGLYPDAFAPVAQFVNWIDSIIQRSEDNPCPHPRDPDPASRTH
Protocol: A commercially available enzyme (for example, human neutrophil elastase, sigma No. E8140) is reconstituted in aliquots of 0.1 mg per vial with 0.276 ml of 50 mM sodium acetate buffer, pH 5.5, containing 200 mM NaCl (stock solution of the enzyme); 11 μl of this stock solution are diluted with 1.1 ml of the HEPES buffer above (enzyme assay solution).
The substrate solution is prepared by dissolving 118 mg of methoxy-succinyl-L-Ala-L-Ala-L-Pro-L-Val-p-nitro-anilide in 1 ml of DMSO (stock solution, for example sigma No. M4765). In view of the application in the analysis, 9 μl of stock solution are then diluted in 1.19 ml of water.
The serial dilutions of the assay compounds are prepared in 100 mM of HEPES buffer containing 500 mM NaCl. The analysis is carried out on colorless 96-well polystyrene microplates (for example, Corning Costar, No. 3695).
10 μl of assay enzyme solution are mixed with 10 μl of the respective diluted compound solution and 10 μl of the substrate solution. After incubation for 15 min, the cleavage of the substrate is read as increase in absorbance at 405 nm.

bovine factor Xa [3] = molecular target: T1, bovine factor Xa; conditions: calibrated against Enoxaparin
Protocol: For the calibration, a standard sample of low molecular weight heparin (Enoxaparin) was used as reference.
The serial dilutions of the assay compound are prepared in a 0.046 M Tris buffer, pH 8.4, containing 0.15 M NaCl, 0.007 M EDTA, 0.1% of Tween 80 and 0.12 IU/ml of human antithrombin III. The samples of 50 μl of the respective dilutions are incubated with 50 μl of bovine factor Xa (13.6 U/ml) at 37° C. for 80 seconds. Next, 50 μl of chromogenic substrate, 1.1 mM S-2765, are added. […] The activity of the deblocked factor Xa is indicated by the emission of p-nitroaniline from the substrate.

T1 sequence (P00743 234-492 limits assumed): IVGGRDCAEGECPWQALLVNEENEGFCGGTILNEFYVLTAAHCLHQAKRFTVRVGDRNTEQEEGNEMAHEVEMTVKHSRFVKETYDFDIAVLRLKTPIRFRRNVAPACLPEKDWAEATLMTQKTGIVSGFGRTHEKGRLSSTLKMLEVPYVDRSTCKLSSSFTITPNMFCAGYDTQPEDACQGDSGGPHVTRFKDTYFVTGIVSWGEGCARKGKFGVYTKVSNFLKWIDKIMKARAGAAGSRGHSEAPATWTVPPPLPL

Substance | factor Xa inhibitory activity of the reference standard (bovine factor Xa [1]) [U/mg] | aggrecanase-inhibiting activity (aggrecanase) | IC50 [2] [µg/mL] | IC50 (μg/ml) for inhibition (aggrecanase) | % conversion (aggrecanase; glycosaminoglycan 0.0001 μg/ml) [%] | % conversion (aggrecanase; glycosaminoglycan 0.001 μg/ml) [%] | % conversion (aggrecanase; glycosaminoglycan 0.01 μg/ml) [%] | % conversion (aggrecanase; glycosaminoglycan 0.1 μg/ml) [%] | % conversion (aggrecanase; glycosaminoglycan 1 μg/ml) [%] | % conversion (aggrecanase; glycosaminoglycan 10 μg/ml) [%] | factor Xa inhibitory activity (bovine factor Xa [3]) [U/mg]
Enoxaparin | 100 |  |  |  |  |  |  |  |  |  | 
hyaluronic acid [reference compound] |  | no aggrecanase-inhibiting activity |  |  |  |  |  |  |  |  | 
Carboxyl-Reduced and Persulfated Hyaluronic Acid Sodium Salt [example 3] |  |  | 7.0 | 0.025 µg/mL | 93 | 84.9 | 54.3 | 28 | 27.4 | 21 | 1.75
Carboxyl-Reduced Hyaluronic Acid Sodium Salt [example 1] |  |  |  | no | 100 | 100 | 100 | 100 | 100 | 100 | 
